These results are taken from publication PMC8365602 (Journal of Medicinal Chemistry, 2021).

One data set concerns the target T1, 12-LOX (Homo sapiens, UniProt P18054).
T1 construct: endogenous in cells; host or cells: primary human PMNL
The data set is described as follows: 12-LOX product formation in activated PMNL. The class given is cell-based.

Data set [1] can be described thus: Radical scavenging activity (DPPH). The note with it: DPPH. On the procedure:
Compound 27a was incubated with 2,2-diphenyl-1-picrylhydrazyl (DPPH, Sigma-Aldrich; 50 mM) in ethanol for 30 min, and the absorbance was measured at 520 nm using a Multiskan Spectrum Microplate Reader (Thermo Fisher Scientific).[72] The positive control ascorbic acid (Sigma-Aldrich; 25 μM) scavenged DPPH radicals by 36 ± 11%.
Background: The DPPH test is a chemical assay of radical scavenging.

Data set [2] in a line: Hepatic metabolism in human liver-on-chip. In kind it is in vitro ADME. The note with it: 1 μM, 48 h. On the procedure:
LCMs, 27a, and 27a metabolites were extracted from PMNL, medium of the liver-on-chip, murine plasma, peritoneal exudate, or homogenized murine tissue as described.[6] In brief, PBS pH 7.4, methanol, chloroform, and saline (final ratio: 14:34:35:17) were successively added together with 13d (9 pmol) as the internal standard. The organic layer was evaporated, and the extracted LCMs were dissolved in methanol.
LCMs, 27a, and 27a metabolites were separated at a flow rate of 0.8 mL/min and a column temperature of 45 °C, with acetonitrile/H2O (10:90) as mobile phase A and acetonitrile as mobile phase B, both acidified with 0.07% formic acid. The linear gradient from A/B = 50:50 to 0:100 within 4.5 min was followed by isocratic elution with A/B = 0:100 for 1 min. MS parameters were adjusted according to Pein et al.[6] and as detailed in Table S3. Signal intensities were normalized to the internal standard 13d, and concentrations were calculated using external calibration curves as specified in Table S3. […]
The medium between the two membranes was renewed, and the vehicle (DMSO), 12a, or 27a were added. […] 12a, 27a, and their metabolites were extracted from the combined fractions and analyzed by UPLC-MS/MS.[6]

Another data set deals with monocytes. As to the kind of experiment: Monocyte membrane integrity (LDH release). Particulars: higher concentrations (>1 μM). In kind it is cell-based, human. On the procedure: To measure mitochondrial dehydrogenase activity, 3-(4,5-dimethylthiazol-2-yl)-2,5-diphenyltetrazolium bromide (MTT) (20 μL, 5 mg/mL, Sigma-Aldrich) was added to PBMC. After 4 h in the darkness, the formed formazan product was solubilized (10% SDS in 20 mM HCl) and the absorbance was read at 570 nm using a Multiskan Spectrum microplate reader (Thermo Fisher Scientific).[81]
LDH release was measured in monocytes using a CytoTox 96 nonradioactive cytotoxicity assay (Promega, Madison, WI) according to the manufacturer’s instruction using Triton X-100 (0.8%) as the maximum LDH release control.
On the technique in general: Release of lactate dehydrogenase indicates damage to the cell membrane.

The target of another data set is T2, 5-LOX (Homo sapiens, UniProt P09917).
T2 sequence (P09917 1-674): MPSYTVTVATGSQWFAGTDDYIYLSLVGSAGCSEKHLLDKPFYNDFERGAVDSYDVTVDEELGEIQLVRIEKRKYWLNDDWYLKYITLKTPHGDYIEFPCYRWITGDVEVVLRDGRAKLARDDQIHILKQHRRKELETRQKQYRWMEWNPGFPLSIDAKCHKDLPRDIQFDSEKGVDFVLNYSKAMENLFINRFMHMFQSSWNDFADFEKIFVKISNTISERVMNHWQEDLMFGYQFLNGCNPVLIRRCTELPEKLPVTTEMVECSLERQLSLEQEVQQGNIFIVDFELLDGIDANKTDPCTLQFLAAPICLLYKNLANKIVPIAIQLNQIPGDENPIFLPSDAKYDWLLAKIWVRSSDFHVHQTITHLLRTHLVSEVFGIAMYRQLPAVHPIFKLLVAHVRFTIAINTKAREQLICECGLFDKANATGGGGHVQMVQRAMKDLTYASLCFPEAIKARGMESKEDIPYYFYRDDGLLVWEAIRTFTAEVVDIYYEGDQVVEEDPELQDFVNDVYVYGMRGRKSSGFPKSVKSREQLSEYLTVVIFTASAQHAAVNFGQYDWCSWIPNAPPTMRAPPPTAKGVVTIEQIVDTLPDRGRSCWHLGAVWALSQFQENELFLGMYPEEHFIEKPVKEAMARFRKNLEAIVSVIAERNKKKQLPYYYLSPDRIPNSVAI
The data set is described as follows: Tryptophan fluorescence spectroscopy of 5-LOX. More on the design: made in house; host or cells: E. coli Bl21 (DE3). The class given is binding. The note with it: 5-LOX titrated with compound, 0–10 μM. On the procedure:
Fluorescence spectroscopy measurements on human recombinant 5-LOX (Abcam, Cambridge, U.K.) were conducted in PBS pH 7.4 at 25 °C using an Edinburgh Instruments FLS920 Series fluorescence spectrophotometer (Livingston, U.K.). […] The concentration range of 5-LOX used through the experiments was 0.3–0.6 μM. 5-LOX was titrated with a stock solution of the test compounds in dimethylformamide to yield an experimental compound concentration in the range of 0–10 μM. The final dimethylformamide concentration was kept under 5%. After each addition, the sample was incubated for 10 min before measurement. The fluorescence emission intensity values were corrected for dilution and background noise. All conditions were measured independently and in duplicate.
The fluorescence spectral shifts were analyzed by monitoring the alterations in the spectral center of mass by estimating the intensity-averaged emission wavelength (⟨λ⟩), as calculated from the following equation, where Fi is the fluorescence emission intensity at wavenumber νi, and the summation was performed over the range of measured F values [drawing 1] 1

In data set [3] the test system is E. coli-stimulated macrophages. As to the kind of experiment: Arachidonic acid release from E. coli-stimulated macrophages. The note with it: ≤1 μM. The class given is cell-based, human.
Procedure: Macrophages were stimulated in PBS pH 7.4 (containing 1 mM CaCl2) with E. coli (serotype O6:K2:H1) at a ratio of 1:50 (macrophages: E. coli) for 180 min at 37 °C and 5% CO2.[24]
Fatty acids and lipid mediators were extracted from macrophage supernatants or murine peritoneal exudates (1 mL) after addition of two aliquots of ice-cold methanol.[23]d8-5S-HETE, d4-LTB4, d5-lipoxin A4, d5-resolvin D2, d4-PGE2 (200 nM, each, Cayman Chemicals), and d8-arachidonic acid (10 μM, Cayman Chemicals) were added as internal standards. After protein precipitation at −20 °C for ≥1 h, supernatants (1200g, 10 min, 4 °C) were acidified (pH 3.5) and loaded onto solid-phase cartridges (Sep-Pak Vac 6cc 500 mg/6 mL C18; Waters), which had been equilibrated with methanol and H2O. The columns were extensively washed with H2O and hexane before lipid mediators were eluted with methyl formate, evaporated to dryness, dissolved in methanol/H2O (50:50), and analyzed by UPLC-MS/MS.[23]
Absolute quantification was based on 6 internal and 45 external standards.[23]
The target of another data set is mPGES-1 (Homo sapiens, UniProt O14684). As to the kind of experiment: mPGES-1 activity in microsomal preparations of IL-1β-treated A549 cells. In kind it is biochemical. The note with it: 10 μM. On the procedure: Confluent cells were detached by trypsin-EDTA (GE Healthcare) and reseeded at a density of 1 × 10^4 cells/cm^2.
Chain of mPGES-1 (O14684 whole entry): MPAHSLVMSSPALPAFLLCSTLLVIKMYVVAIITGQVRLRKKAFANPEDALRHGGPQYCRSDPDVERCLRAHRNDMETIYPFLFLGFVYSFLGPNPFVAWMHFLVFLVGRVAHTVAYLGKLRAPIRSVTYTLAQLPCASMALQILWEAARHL
Differential centrifugation at 10 000g for 10 min and 174 000g for 1 h at 4 °C yielded the microsomal fraction. The pellet was resuspended in homogenization buffer and diluted in 0.1 M potassium phosphate buffer pH 7.4 containing 2.5 mM glutathione. Microsomal membranes (adjusted to 2.5–5 μg total protein) were preincubated with 27a for 15 min at 4 °C. The mPGES-1 substrate PGH2 (20 μM) was added to induce PGE2 formation.

T1 sequence (P18054 whole entry): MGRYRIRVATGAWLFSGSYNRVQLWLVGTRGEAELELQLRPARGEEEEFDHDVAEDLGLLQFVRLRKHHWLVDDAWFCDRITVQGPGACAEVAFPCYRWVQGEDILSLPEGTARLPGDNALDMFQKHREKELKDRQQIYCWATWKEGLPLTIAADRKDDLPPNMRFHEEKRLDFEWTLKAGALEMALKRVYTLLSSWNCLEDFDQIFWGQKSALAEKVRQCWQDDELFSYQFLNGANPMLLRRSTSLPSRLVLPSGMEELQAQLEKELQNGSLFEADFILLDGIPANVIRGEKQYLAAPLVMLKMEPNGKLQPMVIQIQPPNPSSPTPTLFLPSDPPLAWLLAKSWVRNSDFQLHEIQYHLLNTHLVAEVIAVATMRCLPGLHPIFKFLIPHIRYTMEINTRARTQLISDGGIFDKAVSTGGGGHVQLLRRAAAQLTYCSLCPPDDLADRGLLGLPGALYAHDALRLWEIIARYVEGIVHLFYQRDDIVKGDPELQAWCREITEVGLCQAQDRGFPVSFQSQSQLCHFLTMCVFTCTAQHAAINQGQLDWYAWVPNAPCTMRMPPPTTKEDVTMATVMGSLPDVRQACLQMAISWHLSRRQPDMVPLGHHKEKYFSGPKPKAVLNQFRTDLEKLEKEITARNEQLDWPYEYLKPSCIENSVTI
Procedure for 12-LOX: Freshly isolated PMNL (5 × 10^6) suspended in PBS pH 7.4 with 1 mg/mL glucose or freshly withdrawn human whole blood were preincubated with the test compounds for 10 min (or as indicated) at 37 °C. […] The reaction was stopped with an equal volume of methanol.

In the case of `C/C(=C\CC/C(C)=C/CC[C@]1(C)CCc2c(C)c(O)c(C)c(C)c2O1)CCC=C(CO)CO` [Compound 27a, α-amplexichromanol], at 12-LOX, the 12-LOX inhibition result is given as “not substantially inhibited”. In data set [1], the “Concentrations with antioxidative properties (radical scavenging) versus 5-LOX inhibition” value is listed as “exceed those that effectively inhibit 5-LOX”. Moreover, the Hepatic metabolism result in data set [2] is listed as “preferentially conjugated with sulfate or oxidized at 12a′ or 13′ to the respective ω-carboxylic acid”. For the same molecule, the “LDH release from monocytes at higher concentrations” value in the data set with monocytes was “induced a rapid release of lactate dehydrogenase”. In addition, the “Shift of spectral center of mass of intrinsic Trp fluorescence of 5-LOX” value on 5-LOX was “less pronounced”. Besides, the “Availability of free arachidonic acid” value in data set [3] was “neither reduced the availability of free arachidonic acid”. The mPGES-1 activity entry on mPGES-1 is reported as “decreased mPGES-1 activity”.
